One data set relates to HBV. Briefly: In vitro antiviral assay for HBV (Table 1). The data set is classed as cell-based, Hepatitis B virus. To be noted: Hepatitis B virus, read-out: Antiviral Activities (EC50, μM) HBV.
For another data set, the system named is HCV. Briefly: Anti-HCV activity in Huh-Luc/neo cell line, luciferase activity after 3-day treatment. The data set is classed as cell-based, Hepatitis C virus. To be noted: Hepatitis C virus, 72 h, Huh-Luc/neo cells, 3 days; for EC50: given as a bound only, read-out: Antiviral Activities (EC50, μM) HCV.
For another data set, the system named is HSV-1. Briefly: In vitro antiviral assay for HSV-1. The data set is classed as cell-based, Herpes Simplex Virus 1. To be noted: for EC50: Human alphaherpesvirus 1, read-out: Antiviral Activities (EC50, μM) HSV-1. In a few lines: (§1)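 Performed according to previously reported procedures for each virus; no further conditions are given for the HSV-2, CMV, HIV or EBV assays.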

For a further data set, the system named is HSV-2. The data set can be described thus: In vitro antiviral assay for HSV-2. The data set is classed as cell-based, Herpes Simplex Virus 2. To be noted: for EC50: Human alphaherpesvirus 2, read-out: Antiviral Activities (EC50, μM) HSV-2. Summed up:
as §1

The subject of a further data set is EBV. The data set can be described thus: In vitro antiviral assay for EBV. To be noted: human gammaherpesvirus 4, read-out: Antiviral Activities (EC50, μM) EBV. The data set is classed as cell-based, Epstein-Barr Virus. Summed up:
as §1

The test system of the next data set is CMV. The data set can be described thus: In vitro antiviral assay for CMV. The data set is classed as cell-based, cytomegalovirus. The settings on record: Human betaherpesvirus 5, read-out: Antiviral Activities (EC50, μM) CMV. Here is the method:
The antiviral assays for HBV, (Doong et al., 1991, Proc. Natl. Acad. Sci. U.S.A. 88:8495-8499) HSV-1, (Bastow et al., 1983, Antimicrob. Agents Chemother. 23: 914-917) HSV-2, (Bastow et al., 1983, Antimicrob. Agents Chemother. 23:914-917) EBV, (Yao et al., 1993, Antimicrob. Agents Chemother. 37:1420-1425), CMV (Andreoni et al., 2002, J. Med. Virol. 67:33-40) and HIV (Mellors et al., 1992, Mol. Pharmacol. 41: 446-451) were performed according to the previously reported procedures. Anti-HCV activities were tested in Huh-Luc/neo cell line. Cells were seeded into 48-well plates and grown until confluent. Different concentrations of drugs were added into media (DMEM, 10% dFBS) and incubated for 3 days. At the end of 3-day treatment, medium were removed and 50 μl of Passive lysis buffer (Promega) were added. Cell lysate was shaken at room temperature for 15 min. 30 μl/well of cell lysate was transferred to another 96-well plate, 100 μl/well of luciferase activity assay substrate was added into plate and read by a luminometer (Amersham) immediately.

The subject of a further data set is HIV. Briefly: In vitro antiviral assay for HIV. The data set is classed as cell-based, human immunodeficiency virus. The settings on record: Human immunodeficiency virus 1, read-out: Antiviral Activities (EC50, μM) HIV, in vitro; (T) after a value means toxic. In a few lines: as §1
A short description of data set [1]: Cell cytotoxicity assay on MT-2 cells. The data set is classed as cell-based. The settings on record: human, read-out: Cytotoxity (ID50, μM) MT-2. Summed up:
(§2)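 MT-2 and CEM cytotoxicity determined per previously reported procedures. HepG2 cells seeded at 10^4 cells/ml in MEME + 10% FBS, compound added on day 2 for 3 further days at 37° C. Viable layer stained with methylene blue, solubilized in 1% sarcosyl, A595 read.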

Data set [2] in a line: Cell cytotoxicity assay on CEM cells. To be noted: human, read-out: Cytotoxity (ID50, μM) CEM. The data set is classed as cell-based. In a few lines: as §2
[3] abbreviates: read-out: HCV percent of inhibition.

Bounds are passed on as bounds.

By EC50 is commonly meant the concentration at which the effect is half-maximal. `O=C1OC(=O)c2c1cc1ccc3c(c1c2-c1ccc2c(c1)OCO2)OCO3` [Compound 1, 10-Benzo[1,3]dioxol-5-yl-furo[3′,4′:6,7]naphtho[1,2-d][1,3]dioxole-7,9-dione]: the EC50 was > 10 µM in the data set on HBV; > 10 µM in the data set on HCV; > 50 µM in the data set with HSV-1; > 50 µM in the data set on HSV-2; > 20 µM in the data set with EBV; 17.6 µM with CMV. Also, in the data set with HIV, the EC50 is > 100 µM. Further, the IC50 is > 100 µM in [1] and > 50 µM in data set [2].
Usually inhibition stands for the share of the control response that was lost under treatment. What is called melting point is the temperature of the solid-liquid transition. In turn, `O=C([O-])c1cc2ccc3c(c2c(-c2ccc4c(c2)OCO4)c1CO)OCO3.[Na+]` [Compound 3, 9-Benzo[1,3]dioxol-5-yl-8-hydroxymethyl-naphtho[1,2-d][1,3]dioxole-7-carboxylic acid monosodium salt] registered a melting point of 128 to 130 °C. In the data set with HBV, the EC50 was 3.4 µM. Also, the inhibition at 10 µM with HCV (setting [3]) stood at 25%. Moreover, in the data set on HSV-1, the EC50 turned out to be 9 µM. Moreover, the EC50 with HSV-2 was 25 µM. In the data set on EBV, the EC50 is > 20 µM. Further, in the data set on CMV, the 50% effective concentration (EC50) was determined as 2.5 µM. The EC50 in the data set with HIV was > 10 µM. Besides, the IC50 in [1] was 10 µM. The IC50 in data set [2] stood at 30 µM.
On to `O=C(NCCCOCc1ccccc1)c1cc2ccc3c(c2c(-c2ccc4c(c2)OCO4)c1COCc1ccccc1)OCO3` [Compound 8, 9-Benzo[1,3]dioxol-5-yl-8-benzyloxymethyl-naphtho[1,2-d][1,3]dioxole-7-carboxylic acid (3-benzyloxy-propyl)-amide], for which the EC50 is > 10 µM in the data set with HBV; > 10 µM with HCV; > 25 µM in the data set with HSV-1; > 25 µM with HSV-2; > 15 µM in the data set with EBV; 3.7 µM in the data set on CMV. Also, the EC50 with HIV was > 100 µM. Besides, the values for the IC50 in data set [1] and in data set [2] were > 100 µM and 10 µM, respectively.
Take `NC(=O)c1cc2ccc3c(c2c(-c2ccc4c(c2)OCO4)c1C(=O)O)OCO3` [Compound 12, 9-Benzo[1,3]dioxol-5-yl-7-carbamoyl-naphtho[1,2-d][1,3]dioxole-8-carboxylic acid]: the EC50 in the data set on HBV is 0.8 µM; in the data set with HSV-1 it was 0.15 µM; in the data set with HSV-2, < 0.1 µM; in the data set with EBV, 9 µM; in the data set on CMV, 0.45 µM; in the data set with HIV it was > 5 µM. Further, the inhibition at 3 µM in the data set on HCV (at 3 μM, read-out: HCV percent of inhibition) was determined as 58%. In addition, the “times more potent than the reference drug acylclovir against HSV-1” value with HSV-1 (ratio of EC50 values) is “about 140 times”. For the same compound, the “times more potent than the reference drug acylclovir against HSV-2” value in the data set on HSV-2 (ratio of EC50 values) is recorded as ~210 times. The IC50 in data set [1] amounted to 5 µM; in [2] it was 8.4 µM.
`O=C1c2cc3ccc4c(c3c(-c3ccc5c(c3)OCO5)c2C(=O)N1O)OCO4` [Compound 24, 10-Benzo[1,3]dioxol-5-yl-8-hydroxy-1,3-dioxa-8-aza-dicyclopenta[a,g]naphthalene-7,9-dione]: the melting point is 255 °C (dec.). In the data set on HBV, the EC50 was > 5 µM. The EC50 in the data set with HCV was > 10 µM. Also, in the data set with HSV-1, the EC50 is > 30 µM. Also, the EC50 in the data set with HSV-2 is > 30 µM. Also, in the data set with EBV, the 50% effective concentration (EC50) is > 5 µM. For the same compound, in the data set with CMV, the EC50 came out at 4.1 µM. For the same compound, the EC50 in the data set on HIV was > 16 µM. In data set [1], the IC50 stood at 16 µM. The IC50 in [2] is 17 µM.
Turning to `O=C1c2cc3ccc4c(c3c(-c3ccc5c(c3)OCO5)c2C(=O)N1CCCO)OCO4` [Compound 29, 10-Benzo[1,3]dioxol-5-yl-8-(3-hydroxy-propyl)-1,3-dioxa-8-aza-dicyclopenta[a,g]naphthalene-7,9-dione], the melting point lay in the range of 150 to 152 °C. The EC50 with HBV was > 5 µM. Also, the EC50 in the data set with HCV is > 10 µM. Moreover, the EC50 in the data set with HSV-1 is > 30 µM. Also, the EC50 in the data set with HSV-2 was > 30 µM. The EC50 in the data set on EBV is > 5 µM. Also, the EC50 in the data set with CMV was 8.1 µM. In addition, the EC50 with HIV was > 22 µM. In data set [1], the IC50 came out at 22 µM. In addition, in data set [2], the IC50 was 27 µM.
Consider `O=C1OCc2c1cc1c(Cl)cc3c(c1c2-c1ccc2c(c1)OCO2)OCO3` [Compound 37, 10-Benzo[1,3]dioxol-5-yl-5-chloro-9H-furo[3′,4′:6,7]naphtho[1,2-d][1,3]dioxol-7-one], for which the melting point was 267 °C (dec.). Further, the EC50 in the data set on HBV is > 10 µM. For the same compound, in the data set on HCV, the EC50 is > 10 µM. For the same compound, in the data set on HSV-1, the concentration giving a half-maximal response (EC50) turned out to be 23 µM. For the same compound, the EC50 with HSV-2 is > 25 µM. Moreover, the EC50 with EBV is > 20 µM. For the same compound, in the data set on CMV, the EC50 amounted to 8.8 µM. Moreover, the EC50 in the data set with HIV is > 50 µM. Besides, the IC50 in data set [1] is 50 µM. Besides, in data set [2], the IC50 was determined as 27 µM.
On to `O=C1OCc2c1cc1c(Br)cc3c(c1c2-c1ccc2c(c1)OCO2)OCO3` [Compound 38, 10-Benzo[1,3]dioxol-5-yl-5-bromo-9H-furo[3′,4′:6,7]naphtho[1,2-d][1,3]dioxol-7-one], for which the melting point was 256 °C (dec.). Moreover, in the data set with HBV, the EC50 was > 60 µM. Also, the EC50 with HCV was > 10 µM. In the data set with HSV-1, the concentration giving a half-maximal response (EC50) was > 50 µM. Also, the EC50 with HSV-2 is > 50 µM. In the data set with EBV, the EC50 is > 15 µM. Also, in the data set on HIV, the EC50 is > 100 µM. Also, in [1], the IC50 was > 100 µM. Also, in data set [2], the IC50 is 100 µM.
Turning to `O=C1OCc2c1cc1c(I)cc3c(c1c2-c1ccc2c(c1)OCO2)OCO3` [Compound 39, 10-Benzo[1,3]dioxol-5-yl-5-iodo-9H-furo[3′,4′:6,7]naphtho[1,2-d][1,3]dioxol-7-one], the melting point was 255 °C (dec.). Besides, in the data set on HBV, the EC50 is > 40 µM. The EC50 in the data set on HCV was > 10 µM. For the same compound, the concentration for a half-maximal effect (EC50) with HSV-1 is > 25 µM. Further, the EC50 in the data set on HSV-2 is > 25 µM. The EC50 in the data set with EBV is > 10 µM. In addition, the EC50 with HIV was > 80 µM. Moreover, in [1], the IC50 turned out to be 80 µM. Besides, in data set [2], the IC50 is 70 µM.
In the case of `O=C1NCc2c1cc1c(Br)cc3c(c1c2-c1ccc2c(c1)OCO2)OCO3` [Compound 40, 10-Benzo[1,3]dioxol-5-yl-5-bromo-8,9-dihydro-1,3-dioxa-8-aza-dicyclopenta[a,g]naphthalen-7-one], the melting point is 285 °C (dec.). In the data set on HBV, the EC50 was > 20 µM. For the same compound, in the data set on HCV (setting [3]), the inhibition at 10 µM is 32%. In addition, in the data set on HSV-1, the EC50 came to 6.5 µM. In the data set on HSV-2, the EC50 was > 20 µM. In the data set on EBV, the EC50 is > 20 µM. In addition, the EC50 with HIV is > 54 µM. Moreover, the IC50 in [1] turned out to be 54 µM. In data set [2], the IC50 stood at 38 µM.
`O=c1[nH][nH]c(=O)c2c(-c3ccc4c(c3)OCO4)c3c4c(cc(Cl)c3cc12)OCO4` [Compound 41, 11-Benzo[1,3]dioxol-5-yl-5-chloro-8,9-dihydro-1,3-dioxa-8,9-diaza-cyclopenta[a]anthracene-7,10-dione]: the melting point is 316 °C (dec.). In the data set with HBV, the EC50 was > 10 µM. Moreover, in the data set with HCV (setting [3]), the inhibition at 10 µM was 60%. In the data set with HSV-1, the EC50 worked out at 7 µM. Further, the EC50 in the data set on HSV-2 was > 40 µM. Moreover, the EC50 in the data set on EBV is > 20 µM. The EC50 with HIV was > 30 µM. In addition, in data set [1], the IC50 turned out to be 30 µM. In [2], the IC50 was > 100 µM.
In the case of `O=c1[nH][nH]c(=O)c2c(-c3ccc4c(c3)OCO4)c3c4c(cc(I)c3cc12)OCO4` [Compound 43, 11-Benzo[1,3]dioxol-5-yl-5-iodo-8,9-dihydro-1,3-dioxa-8,9-diaza-cyclopenta[a]anthracene-7,10-dione], the melting point is 300 °C (dec.). Moreover, in the data set with HBV, the EC50 was > 10 µM. Further, the inhibition at 10 µM with HCV (setting [3]) was determined as 52%. Moreover, the EC50 with HSV-1 is > 40 µM. Also, in the data set on HSV-2, the EC50 was > 40 µM. Moreover, the EC50 in the data set with EBV was > 20 µM. Also, the EC50 with HIV stood at 2 µM. For the same compound, in [1], the IC50 is 35 µM. In addition, in data set [2], the IC50 is 40 µM.

Source of the values: patent US7754718B2 (priority 2004, dated 2010).
